In patent US20260327211A1, “MODULATORS OF A POTASSIUM CHANNEL AND OF TRPV1 CHANNEL AND USES THEREOF” (Bsense Bio Therapeutics Ltd., priority 2023, published 2026):
Read-outs that look alike come from different tables or passages of the source.

Key:
CYP3A4 = assay: CYP inhibition / time-dependent inhibition, CYP3A4_Midazolam; type: in vitro ADME, human; conditions: for TDI related reactive metabolite: Table 11
Method: (§1) The time-dependent inactivation potency of the test compound to CYP enzymatic activities was assessed by the pre-incubation of the human liver microsomes with the test compound in the presence and absence of NADPH, followed by the incubation with the discrete marker substrates, as follows.
(§2) Pre-incubation with human liver microsomes (HLMs): The TDI inactivation potency on CYP enzymatic activities was evaluated through pre-incubation with HLMs (Corning). A liver microsome mixture at a concentration of 0.1 mg/mL, and the test compound at 8 different concentrations (0, 0.05, 0.165, 0.5, 1.65, 5.0, 16.5, or 50.0 μM) was warmed at 37° C. for 10 minutes. Concurrently, a set of known time-dependent inactivators was also prepared in duplicate for comparison. Following this, NADPH (1.0 mM) was added to one group (Group 1), and an equal volume of potassium phosphate buffer to the second group (Group 2), marking the beginning of a 30-minute pre-incubation at 37° C.
(§3) Incubation: After pre-incubation, the marker substrate, or marker substrate plus NADPH was added to the mixture, thereby initiating the incubation. The duration of the incubation was dependent on the type of CYP isoform being evaluated. For example, with the CYP3A isoform, the mixture was incubated over 3 minutes utilizing midazolam as the marker substrate (2.0 μM), verapamil as the standard inactivator (3.5 μM).
(§4) Termination of Reaction: Following the incubation, ice-cooled acetonitrile containing the internal standard (IS) was added to halt the reactions. Metabolites generated from the marker substrates were then measured via LC-MS/MS, assessed based on peak area ratios of the analyte to IS.

hKv7.3/5 = target: T1, hKv7.3/5 (Homo sapiens, UniProt O43525+Q9NR82); assay: Kv7.3/5 HCS, FLIPR potassium assay; type: cell-based
T1 construct: expressed in transfected cells; host or cells: CHO
T1 sequence (O43525 whole entry): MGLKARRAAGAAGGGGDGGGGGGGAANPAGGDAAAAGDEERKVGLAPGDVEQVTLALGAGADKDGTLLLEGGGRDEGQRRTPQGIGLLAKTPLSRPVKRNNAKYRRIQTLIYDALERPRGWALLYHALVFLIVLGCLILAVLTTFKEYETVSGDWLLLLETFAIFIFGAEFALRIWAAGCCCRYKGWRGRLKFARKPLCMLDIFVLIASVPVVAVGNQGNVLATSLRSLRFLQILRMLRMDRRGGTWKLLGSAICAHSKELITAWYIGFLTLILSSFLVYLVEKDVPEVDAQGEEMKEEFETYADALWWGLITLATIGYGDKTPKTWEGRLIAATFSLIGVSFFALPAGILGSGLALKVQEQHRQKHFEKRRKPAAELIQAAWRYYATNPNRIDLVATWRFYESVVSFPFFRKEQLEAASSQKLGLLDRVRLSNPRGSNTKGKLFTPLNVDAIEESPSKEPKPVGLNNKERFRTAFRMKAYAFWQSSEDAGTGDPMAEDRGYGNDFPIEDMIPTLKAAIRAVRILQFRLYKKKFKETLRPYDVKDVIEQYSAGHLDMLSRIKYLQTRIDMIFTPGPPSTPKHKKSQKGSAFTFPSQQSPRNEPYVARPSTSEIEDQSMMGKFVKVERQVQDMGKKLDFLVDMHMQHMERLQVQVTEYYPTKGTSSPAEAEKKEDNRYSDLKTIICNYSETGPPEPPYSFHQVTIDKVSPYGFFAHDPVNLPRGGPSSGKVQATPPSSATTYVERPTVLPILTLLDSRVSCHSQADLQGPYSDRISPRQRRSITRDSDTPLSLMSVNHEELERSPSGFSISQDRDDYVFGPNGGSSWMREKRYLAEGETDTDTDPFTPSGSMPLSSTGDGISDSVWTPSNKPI
T1 sequence (Q9NR82 whole entry): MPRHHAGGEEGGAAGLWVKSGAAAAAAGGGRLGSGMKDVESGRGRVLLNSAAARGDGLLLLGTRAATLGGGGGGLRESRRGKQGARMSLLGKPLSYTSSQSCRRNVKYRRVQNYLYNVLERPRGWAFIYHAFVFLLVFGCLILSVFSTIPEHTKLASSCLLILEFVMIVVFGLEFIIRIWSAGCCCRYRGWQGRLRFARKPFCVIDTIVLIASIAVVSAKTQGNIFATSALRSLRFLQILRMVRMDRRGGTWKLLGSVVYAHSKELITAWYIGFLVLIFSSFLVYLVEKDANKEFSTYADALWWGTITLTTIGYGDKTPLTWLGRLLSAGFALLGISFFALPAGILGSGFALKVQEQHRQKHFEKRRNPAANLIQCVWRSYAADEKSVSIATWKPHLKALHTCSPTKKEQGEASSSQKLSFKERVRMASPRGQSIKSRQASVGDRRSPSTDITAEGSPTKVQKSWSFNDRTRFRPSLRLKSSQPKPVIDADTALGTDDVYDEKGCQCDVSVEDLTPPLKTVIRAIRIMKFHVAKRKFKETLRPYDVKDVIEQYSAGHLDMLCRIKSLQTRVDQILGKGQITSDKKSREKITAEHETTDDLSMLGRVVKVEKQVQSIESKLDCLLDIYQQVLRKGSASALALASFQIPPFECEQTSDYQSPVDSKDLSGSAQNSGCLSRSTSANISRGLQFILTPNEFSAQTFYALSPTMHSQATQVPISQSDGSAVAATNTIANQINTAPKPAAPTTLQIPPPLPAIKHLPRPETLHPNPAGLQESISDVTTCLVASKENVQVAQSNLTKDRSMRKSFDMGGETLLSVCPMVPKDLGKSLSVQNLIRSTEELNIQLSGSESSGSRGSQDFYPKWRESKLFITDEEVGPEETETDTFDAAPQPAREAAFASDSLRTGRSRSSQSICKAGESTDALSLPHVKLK
Method: (§5) Cell culture: Chinese hamster ovary (CHO) cell-line cells were cultured in F-12 nutrient mixture (Biological Industries) supplemented with 10% fetal bovine serum with 1% penicillin-streptomycin (Biological Industries) in a humidified 5% CO2 incubator at 37° C. To express the appropriate gene either Kv7.3/5, Kv7.4 or TRPA1 5 μg plasmid was transfected using Amaxa, DT-133 program, with p-3 Kit.
(§6) Kv7.3/5 and 7.4HCS using FLIPR Potassium Assay Kit: Kv7.3/5 and 7.4 HCS using the FLIPR Potassium Assay Kit was performed similarly to the Kv7.2/3 HCS, except that the Tecan Spark plate-reader injectors were primed with Tl+(1 mM Tl2SO4) or Tl++K+(1 mM Tl2SO4; 5 mM K2SO4) for Kv7.3/5, or Tl+(1 mM Tl2SO4) or Tl++K+(1 mM Tl2SO4; 10 mM K2SO4) for Kv7.4 for channel activation and data correction.
(§7) FLIPR Potassium Assay Kit: The FLIPR Potassium Assay Kit (R8222 FLIPR Potassium Assay Explorer Kits, Molecular Devices) was used with transfected CHO cells.
(§8) According to optimization process, to achieve a uniform and consistent screening condition of molecules, the following protocol was established: 2 days following transfection cells were seeded in 384-well, black-walled, clear-bottomed, at a density of 5,000 cells per well 24 hours before the assay conductance and incubated overnight in their normal growth medium. On the experiment day the medium was replaced with HBSS, HEPES, and the tested compound/vehicle (0.2% DMSO). Dye solution (prepared according to the manufacturer) was added to the wells and plates were incubated for 1.5 hour light-protected in room temperature. The Tecan Spark plate-reader injectors were primed with Tl+(1 mM Tl2SO4) or Tl++K+(1 mM Tl2SO4; 5 mM K2SO4) for Kv7.3/5 channel activation and data correction or Tl+(1 mM Tl2SO4) or Tl++K+(1 mM Tl2SO4; 10 mM K2SO4) for Kv7.4 for channel activation and data correction. […] To calculate IC50 values, the data was fitted to sigmoidal regression using Prism GraphPad.

hKv7.4 = target: T2, hKv7.4 (Homo sapiens, UniProt P56696); assay: Kv7.4 HCS, FLIPR potassium assay; type: cell-based
T2 construct: expressed in transfected cells; host or cells: CHO
T2 sequence (P56696 whole entry): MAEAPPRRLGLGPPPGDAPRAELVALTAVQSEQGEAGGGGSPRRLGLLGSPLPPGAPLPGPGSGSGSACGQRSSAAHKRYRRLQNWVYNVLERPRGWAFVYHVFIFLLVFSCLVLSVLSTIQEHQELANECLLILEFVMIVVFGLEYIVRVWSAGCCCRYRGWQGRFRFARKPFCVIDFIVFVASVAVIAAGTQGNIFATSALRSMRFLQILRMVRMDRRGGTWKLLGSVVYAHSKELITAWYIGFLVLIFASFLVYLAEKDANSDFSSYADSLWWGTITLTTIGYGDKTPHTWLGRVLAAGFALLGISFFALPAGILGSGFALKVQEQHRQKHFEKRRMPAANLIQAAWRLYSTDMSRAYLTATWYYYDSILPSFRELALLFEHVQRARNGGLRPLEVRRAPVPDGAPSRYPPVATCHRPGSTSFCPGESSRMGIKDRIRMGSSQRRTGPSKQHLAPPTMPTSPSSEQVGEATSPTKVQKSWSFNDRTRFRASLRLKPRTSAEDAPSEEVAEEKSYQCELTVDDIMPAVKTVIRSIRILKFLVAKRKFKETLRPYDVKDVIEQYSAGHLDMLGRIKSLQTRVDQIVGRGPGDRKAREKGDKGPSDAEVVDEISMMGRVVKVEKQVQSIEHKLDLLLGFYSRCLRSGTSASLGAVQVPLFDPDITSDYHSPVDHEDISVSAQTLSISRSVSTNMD
Method: as §5, §6, §7, §8

[1] = Bidirectional permeability in Caco-2 cells; type: in vitro ADME, human
Method: Cell culture: Caco-2 cells (ATCC) were seeded onto polycarbonate (PC) membranes in 96-well insert plates. The cells were cultured in media for 21-28 days prior to performing the transport assays.
Validation of monolayer integrity: Once the Caco-2 cells formed a confluent monolayer, their integrity was evaluated using a Lucifer yellow rejection assay. The monolayer integrity was further evaluated by measuring, in duplicate wells, the unidirectional (A→B) permeability of nadolol (a low permeability marker) and metoprolol (a high permeability marker), as well as bidirectional permeability of digoxin (a P-glycoprotein substrate marker).
Assay: The compounds were assayed under bidirectional transport conditions (A→B and B→A) at a concentration of 2.00 μM (with DMSO≤1.0%), using a transport buffer composed of HBSS containing 10.0 mM HEPES, pH 7.40±0.05. The incubation was carried out at 37° C., with 5.0% CO2 and relatively saturated humidity for 2 hours.
The dosing solution was spiked and mixed with the transport buffer and a Stop Solution (containing an internal standard (IS)) to create a T0 sample.
Sample analysis: Following the incubation, all of the samples were analyzed using LC-MS/MS. The concentrations of the test compounds were expressed as peak area ratios of the analytes versus the IS.

CYP2C19 = target: T3, CYP2C19 (Homo sapiens, UniProt P33261); assay: CYP inhibition / time-dependent inhibition, CYP2C19_S-Mephenytoin; type: in vitro ADME; conditions: role: inhibitor
T3 construct: pre-incubation of the human liver microsomes with the test compound; tissue Corning; host or cells: human liver microsomes
T3 sequence (P33261 whole entry): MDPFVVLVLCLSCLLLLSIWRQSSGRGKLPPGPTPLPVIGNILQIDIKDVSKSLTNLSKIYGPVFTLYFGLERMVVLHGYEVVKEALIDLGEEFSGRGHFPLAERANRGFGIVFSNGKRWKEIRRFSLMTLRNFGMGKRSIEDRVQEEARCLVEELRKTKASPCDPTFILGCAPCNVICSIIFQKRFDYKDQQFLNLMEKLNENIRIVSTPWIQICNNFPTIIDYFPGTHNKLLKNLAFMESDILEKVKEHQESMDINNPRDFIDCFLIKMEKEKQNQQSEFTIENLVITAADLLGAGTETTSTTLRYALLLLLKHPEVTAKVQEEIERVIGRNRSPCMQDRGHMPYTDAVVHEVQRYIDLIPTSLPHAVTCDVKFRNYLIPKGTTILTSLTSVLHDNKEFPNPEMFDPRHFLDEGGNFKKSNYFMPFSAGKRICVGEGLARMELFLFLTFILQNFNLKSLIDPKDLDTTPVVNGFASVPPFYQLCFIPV
Method: as §1, §2, §3, §4

adrenergic β2 = target: T4, adrenergic β2 (Homo sapiens, UniProt P07550); assay: Functional selectivity panel, adrenergic β2; type: biochemical
T4 construct: Eurofins DiscoverX, USA
T4 sequence (P07550 whole entry): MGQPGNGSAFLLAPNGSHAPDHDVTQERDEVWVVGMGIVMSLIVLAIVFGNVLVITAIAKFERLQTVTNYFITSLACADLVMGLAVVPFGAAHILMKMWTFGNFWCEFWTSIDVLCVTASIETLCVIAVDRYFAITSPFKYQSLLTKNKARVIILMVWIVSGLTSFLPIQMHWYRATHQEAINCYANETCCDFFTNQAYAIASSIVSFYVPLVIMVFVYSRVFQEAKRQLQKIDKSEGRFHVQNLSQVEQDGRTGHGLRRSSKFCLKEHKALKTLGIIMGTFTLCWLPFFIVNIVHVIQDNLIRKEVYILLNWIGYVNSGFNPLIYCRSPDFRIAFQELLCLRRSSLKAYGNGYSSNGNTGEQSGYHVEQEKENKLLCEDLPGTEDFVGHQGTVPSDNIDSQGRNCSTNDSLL
Method: A broad panel of 78 recombinant targets was tested for pharmacologic activity in vitro through a variety of functional assays (Eurofins DiscoverX, USA), as part of the National Institute of Neurological Disorders and Stroke (NINDS) Preclinical Screening Platform for Pain (PSPP) program. The biological targets for the in vitro profiling have been selected based on avoiding opioid receptor stimulation and targets known to be associated with adverse events or targeted by drugs of abuse. […] For each test, a reference compound was evaluated at the target of interest as a positive control.

Structure (SMILES)	TDI related reactive metabolite (CYP3A4)	EC50 (hKv7.3/5; read-out: Kv7.3/5 EC50 HCS) [µM]	EC50 (hKv7.4; read-out: Kv7.4 EC50 HCS) [µM]	Caco-2 AB [1]	Kv7.4 activity (hKv7.4)	other results
Cc1cn(-c2ccc(F)c(CC(=O)NCC(C)(C)O)c2)c2c(Cl)cc(Cl)cc12 [Compound 421]	Yes	3	> 2	–	–	–
O=C(Cc1cc(-n2cc(Cl)c3cc(Cl)cc(Cl)c32)ccc1F)NCCO [Compound 627]	Yes	> 0.6	88	–	–	–
O=C(Cc1cncc(-n2cc(Cl)c3cc(Cl)cc(Cl)c32)c1)N[C@@H]1COC[C@H]1O [Compound 661]	Yes	40.9	49.3	1.78	no measurable activity at any concentration tested	IC50 (CYP2C19; (+)NADPH pre-incubation, substrate S-mephenytoin, read-out: IC50 (+)NADPH CYP2C19_S-Mephenytoin): 18.5 µM; IC50 (CYP2C19; (−)NADPH pre-incubation, substrate S-mephenytoin, read-out: IC50 (−)NADPH CYP2C19_S-Mephenytoin): 15.6 µM; IC50 (adrenergic β2; read-out: adrenergic β2 IC50): 4 µM
O=C(Cc1nccc(-n2cc(Cl)c3cc(Cl)cc(Cl)c32)n1)NC1COCC1O (stereo not shown) [Compound 760]	No	–	–	7.6	lacks any effect on hERG and Kv7.3/4/5 activity below 10 μM	CYP inhibition / TDI, all CYPs of Table 9 (CYP3A4; role: inhibitor, up to 20 micromolar): did not show significant CYP inhibition or time-dependent inhibition (TDI); EC50 (hKv7.3/5; Thallium ions (Tl+) fluorescence, read-out: hKv7.3/5 EC50): 10.7 µM; IC50 (CYP2C19; Table 9, read-out: CYP inhibition IC50 CYP2C19): > 50 µM; EC50 (hKv7.4; Thallium ions (Tl+) fluorescence, read-out: hKv7.4 EC50): 46.2 µM; IC50 (adrenergic β2; antagonist, read-out: IC/EC50 Adrenergic β2-antagonist): 46 µM
O=C(Cc1ccnc(-n2cc(Cl)c3cc(Cl)cc(Cl)c32)n1)N[C@@H]1COC[C@H]1O [Compound 820]	–	–	–	–	–	CYP-TDI (midazolam), (−)NADPH/(+)NADPH Ratio CYP3A4 (CYP3A4; role: inhibitor, substrate midazolam 2.0 μM, CYP TDI ratio): <0.9; Caco-2 Efflux ratio ([1]; 2.00 μM, 120 min): 2.49; efflux ratio at 2 h, 2 µM ([1]; human, Caco-2, pH 7.4, 2.00 μM): < 3
